Test results reported in US10975037B2 (priority 2018, dated 2021).
Counter-ions that a name gives are not always drawn. Like-named read-outs stand apart in the source and are kept apart here.

Columns and labels:
full-length human RORγt = full-length human RORγt (Homo sapiens (Human), UniProt P51449); test: RORγt (full-length human) reporter assay, conditions A or B, HEK293T cells; format: cell-based; settings: for inhibition at 3 µM: 3 μM compound concentration (footnote *); for IC50: RORγt (FL) Reporter Assay A or B, IC50, HEK293T cells; for inhibition at 2 µM: 2 μM compound concentration; for inhibition at 6 µM: read-out: RORγt (FL) Reporter Assay A or B, % inhibition @ 6 μM, 6 μM compound concentration
How it was run: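 Dual-luciferase read-out was taken after an overnight (16–20 h) compound exposure. Firefly data were scaled between DMSO-only and saturating reference compound, Renilla-normalized, then plotted against concentration for IC50.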

[1] = target: human RORγt ligand binding domain (RORγt LBD) (Homo sapiens (Human), UniProt P51449); test: RORγt ThermoFluor® assay (thermal shift binding)
How it was run: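 Thermal shift with 0.065 mg/mL RORγt LBD and 60 μM 1,8-ANS in 100 mM Hepes pH 7.0, 10 mM NaCl, 2.5 mM GSH, 0.002% Tween-20.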

[2] = HEK-293T, read-out: RORγt (FL) Reporter Assay A or B, % inhibition
[3] = read-out: ThermoFluor® Assay, Kd

Sequence of full-length human RORγt (P51449 other isoform, or with tags, fused parts or gaps): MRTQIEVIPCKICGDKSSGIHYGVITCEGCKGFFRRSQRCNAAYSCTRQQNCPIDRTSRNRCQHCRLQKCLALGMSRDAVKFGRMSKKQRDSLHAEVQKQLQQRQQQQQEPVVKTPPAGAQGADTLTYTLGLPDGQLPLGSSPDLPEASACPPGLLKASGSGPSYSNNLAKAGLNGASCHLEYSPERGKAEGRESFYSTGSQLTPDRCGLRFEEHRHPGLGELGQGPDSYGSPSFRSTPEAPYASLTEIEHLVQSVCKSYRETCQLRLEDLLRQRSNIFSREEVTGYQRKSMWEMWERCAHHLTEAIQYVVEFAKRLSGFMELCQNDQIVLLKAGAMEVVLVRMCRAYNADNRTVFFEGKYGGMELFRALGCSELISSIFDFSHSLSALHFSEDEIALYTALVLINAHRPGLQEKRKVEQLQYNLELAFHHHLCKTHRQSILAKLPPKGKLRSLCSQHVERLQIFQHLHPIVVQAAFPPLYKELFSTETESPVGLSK
Sequence of human RORγt ligand binding domain (RORγt LBD) (P51449 other isoform, or with tags, fused parts or gaps): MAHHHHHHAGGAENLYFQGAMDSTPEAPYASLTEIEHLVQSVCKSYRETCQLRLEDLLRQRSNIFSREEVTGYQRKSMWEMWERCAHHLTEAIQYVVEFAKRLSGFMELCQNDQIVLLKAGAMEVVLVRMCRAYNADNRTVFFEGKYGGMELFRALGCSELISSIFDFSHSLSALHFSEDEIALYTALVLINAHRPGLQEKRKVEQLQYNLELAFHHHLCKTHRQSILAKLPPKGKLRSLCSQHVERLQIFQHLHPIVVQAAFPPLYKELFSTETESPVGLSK

Row | inhibition at 3 µM (full-length human RORγt; [2]) | IC50 (full-length human RORγt) | Kd ([1]; ThermoFluor® Assay, Kd) | inhibition at 1 µM (full-length human RORγt; HEK-293T, 1 μM compound concentration (footnote ***), read-out: RORγt (FL) Reporter Assay A or B, % inhibition) | inhibition at […] (full-length human RORγt; HEK-293T, 0.22 μM compound concentration (footnote *******), read-out: RORγt (FL) Reporter Assay A or B, % inhibition) | Kd [1, 3] | inhibition at 2 µM (full-length human RORγt; [2]) | inhibition at 6 µM (full-length human RORγt; HEK-293T) | Structure (SMILES)
1 | 109% | 8 nM | 1 nM |  |  |  |  |  | CCn1nc(C(=O)NC[C@@H]2CC[C@@H](S(C)(=O)=O)C[NH+]2CC(=O)ON)c(Cl)c1-c1ccc(CC(C)(C)C(F)(F)F)cc1OC(F)F (stereo in doubt) [Example 63, N-(((2S*,5R*)-1-(2-(Aminooxy)-2-oxoethyl)-5-(methylsulfonyl)piperidin-2-yl)methyl)-4-chloro-5-(2-(difluoromethoxy)-4-(3,3,3-trifluoro-2,2-dimethylpropyl)phenyl)-1-ethyl-1H-pyrazole-3-carboxamide Trifluoroacetic Acid Salt]
2 | 119% | 51 nM | 3.2 nM |  |  |  |  |  | CCn1nc(C(=O)NC[C@H]2CC[C@H](S(C)(=O)=O)C[NH+]2CC(=O)ON)c(Cl)c1-c1ccc(CC(C)(C)C(F)(F)F)cc1OC(F)F (stereo in doubt) [Example 64, N-(((2R*,5S*)-1-(2-(Aminooxy)-2-oxoethyl)-5-(methylsulfonyl)piperidin-2-yl)methyl)-4-chloro-5-(2-(difluoromethoxy)-4-(3,3,3-trifluoro-2,2-dimethylpropyl)phenyl)-1-ethyl-1H-pyrazole-3-carboxamide Trifluoroacetic Acid Salt]
3 | 102% | 4.8 nM | 2 nM |  |  |  |  |  | CCn1nc(C(=O)NC[C@]2(O)CC[C@@H](S(C)(=O)=O)C[C@H]2O)c(Cl)c1-c1ccc(C[C@@H](C)C(F)(F)F)cc1OC(F)F (stereo in doubt) [Example 137, 4-Chloro-5-(2-(difluoromethoxy)-4-((R*)-3,3,3-trifluoro-2-methylpropyl)phenyl)-N-(((1R*,2R*,4R*)-1,2-dihydroxy-4-(methylsulfonyl)cyclohexyl)methyl)-1-ethyl-1H-pyrazole-3-carboxamide]
4 |  | 12 nM | 3.7 nM | 101% |  |  |  |  | CCn1nc(C(=O)NC[C@@]2(O)CC[C@H](S(C)(=O)=O)C[C@@H]2O)c(Cl)c1-c1ccc(C[C@@H](C)C(F)(F)F)cc1OC(F)F (stereo in doubt) [Example 138, 4-Chloro-5-(2-(difluoromethoxy)-4-((R*)-3,3,3-trifluoro-2-methylpropyl)phenyl)-N-(((1S*,2S*,4S*)-1,2-dihydroxy-4-(methylsulfonyl)cyclohexyl)methyl)-1-ethyl-1H-pyrazole-3-carboxamide]
5 | 109% | 15 nM | 2.4 nM |  |  |  |  |  | CCn1nc(C(=O)NC[C@]2(O)CC[C@@H](S(C)(=O)=O)C[C@H]2O)c(C)c1-c1ccc(C[C@@H](C)C(F)(F)F)cc1OC(F)F (stereo in doubt) [Example 140, 5-(2-(Difluoromethoxy)-4-((R*)-3,3,3-trifluoro-2-methylpropyl)phenyl)-N-(((1R*,2R*,4R*)-1,2-dihydroxy-4-(methylsulfonyl)cyclohexyl)methyl)-1-ethyl-4-methyl-1H-pyrazole-3-carboxamide]
6 | 84% | 85 nM | 5.8 nM |  |  |  |  |  | CCn1nc(C(=O)NC[C@@]2(O)CC[C@H](S(C)(=O)=O)C[C@@H]2O)c(C)c1-c1ccc(C[C@@H](C)C(F)(F)F)cc1OC(F)F (stereo in doubt) [Example 141, 5-(2-(Difluoromethoxy)-4-((R*)-3,3,3-trifluoro-2-methylpropyl)phenyl)-N-(((1S*,2S*,4S*)-1,2-dihydroxy-4-(methylsulfonyl)cyclohexyl)methyl)-1-ethyl-4-methyl-1H-pyrazole-3-carboxamide]
7 | 73% | 39 nM | 41 nM |  |  |  |  |  | Cn1nc(C(=O)NC[C@@]2(O)CC[C@H](S(C)(=O)=O)C[C@@H]2O)c(Cl)c1-c1ccc(CCCC(F)(F)F)cc1OC(F)F (stereo in doubt) [Example 159, 4-Chloro-5-(2-(difluoromethoxy)-4-(4,4,4-trifluorobutyl)phenyl)-N-(((1S*,2S*,4S*)-1,2-dihydroxy-4-(methylsulfonyl)cyclohexyl)methyl)-1-methyl-1H-pyrazole-3-carboxamide]
8 | 96% | 27 nM | 39 nM |  |  |  |  |  | Cn1nc(C(=O)NC[C@]2(O)CC[C@@H](S(C)(=O)=O)C[C@H]2O)c(Cl)c1-c1ccc(CCCC(F)(F)F)cc1OC(F)F (stereo in doubt) [Example 160, 4-Chloro-5-(2-(difluoromethoxy)-4-(4,4,4-trifluorobutyl)phenyl)-N-(((1R*,2R*,4R*)-1,2-dihydroxy-4-(methylsulfonyl)cyclohexyl)methyl)-1-methyl-1H-pyrazole-3-carboxamide]
9 |  | 4.4 nM |  |  | 94% | 0.16 nM |  |  | CCn1nc(C(=O)NC[C@H]2CC[C@H](S(C)(=O)=O)CC2)c(Cl)c1-c1ccc(CC(C)(C)C(F)(F)F)cc1OC(F)F [Example 2, 4-Chloro-5-(2-(difluoromethoxy)-4-(3,3,3-trifluoro-2,2-dimethylpropyl)phenyl)-1-ethyl-N-(((1r,4r)-4-(methylsulfonyl)cyclohexyl)methyl)-1H-pyrazole-3-carboxamide]
10 |  | 52 nM |  |  |  | 21 nM | 104% |  | CCn1nc(C(=O)NC[C@]2(O)CC[C@@H](S(C)(=O)=O)CC2)c(Cl)c1-c1ccc(N[C@H](C)C(F)(F)F)cc1OC [Example 24, 4-Chloro-1-ethyl-N-(((1s,4S)-1-hydroxy-4-(methylsulfonyl)cyclohexyl)methyl)-5-(2-methoxy-4-(((R)-1,1,1-trifluoropropan-2-yl)amino)phenyl)-1H-pyrazole-3-carboxamide]
11 |  | 120 nM |  |  |  | 31 nM |  | 105% | CCn1nc(C(=O)NC[C@H]2CC[C@H](S(C)(=O)=O)CC2)c(Cl)c1-c1ccc(NCC(F)(F)F)cc1OC [Example 25, 4-Chloro-1-ethyl-5-(2-methoxy-4-((2,2,2-trifluoroethyl)amino)phenyl)-N-(((1r,4r)-4-(methylsulfonyl)cyclohexyl)methyl)-1H-pyrazole-3-carboxamide]
12 |  | 29 nM |  |  |  | 3.9 nM |  | 108% | COc1cc(N[C@H](C)C(F)(F)F)ccc1-c1c(Cl)c(C(=O)NC[C@H]2CC[C@H](S(C)(=O)=O)CC2)nn1C(C)(C)C [Example 26, 1-(tert-Butyl)-4-chloro-5-(2-methoxy-4-(((R)-1,1,1-trifluoropropan-2-yl)amino)phenyl)-N-(((1r,4R)-4-(methylsulfonyl)cyclohexyl)methyl)-1H-pyrazole-3-carboxamide]
13 |  | 60 nM |  |  |  | 7.4 nM |  | 105% | COc1cc(N[C@H](C)C(F)(F)F)ccc1-c1c(Cl)c(C(=O)NC[C@]2(O)CC[C@@H](S(C)(=O)=O)CC2)nn1C(C)(C)C [Example 27, 1-(tert-Butyl)-4-chloro-N-(((1s,4S)-1-hydroxy-4-(methylsulfonyl)cyclohexyl)methyl)-5-(2-methoxy-4-(((R)-1,1,1-trifluoropropan-2-yl)amino)phenyl)-1H-pyrazole-3-carboxamide]
14 |  | 23 nM |  |  |  | 2.5 nM | 103% |  | COc1cc(N[C@H](C)C(F)(F)F)ccc1-c1c(Cl)c(C(=O)NC[C@H]2CC[C@H](S(C)(=O)=O)CC2)nn1CC(C)C [Example 28, 4-Chloro-1-isobutyl-5-(2-methoxy-4-(((R)-1,1,1-trifluoropropan-2-yl)amino)phenyl)-N-(((1r,4R)-4-(methylsulfonyl)cyclohexyl)methyl)-1H-pyrazole-3-carboxamide]
